Measurements published in patent publication US8026231B2, “Aminothiolester compounds, pharmaceutical and cosmetic compositions containing same and uses thereof” (CNRS, priority 2000, dated 2011).
One block for each compound: values may come before it.

What was measured:
[1] = system: BAF3 bcl2 cells; test: Growth of BAF3 bcl2 cells (viable cell count, Trypan blue); type: cell-based, murine; conditions: 50% inhibition of cell growth
Description: (§1) The cells used correspond to two cell lines: metastatic cells of human prostate cancer (DU145) and murine lymphoid cells transfected with the human bcl2 gene (BAF3 bcl2).
The procedure used for the tests on BAF3 bcl2 cells is as follows: • 10^5 cells are incubated in the various wells of a microplate in 1 ml of culture medium. After incubation for 4 hours, the test compounds are added to the wells containing the BAF3 bcl2 cells.
For the BAF3 bcl2 cells, the growth is measured by counting the viable cells in the presence of 0.1% Trypan blue. The control consists of thioampal, disclosed in patent application WO 98/44919.
(§2) The IC50 concentration is the concentration corresponding to a 50% inhibition of cell growth.

[2] = system: normal human prostate cells; test: Combination of two compounds of the invention on normal human prostate cells; type: cell-based; conditions: Homo sapiens, Prostate cell
Description: (§3) 10^5 normal human prostate cells or 10^5 cancerous human prostate cells (DU145) are incubated in various wells of a microplate in 1 ml of culture medium.
(§4) The compounds are added 4 hours after placing the cells in the wells.
(§5) After 72 hours, the cells are removed at different times. The DU145 cells or the normal cells are washed twice with PBS and recovered directly with 0.1M sodium chloride.
(§6) The effect on the growth of the DU145 cells or the normal cells is measured by protein assay according to the Lowry method (Lowry, O. H., Rosenbrough, N. J., Farr, A. L. and Randall, J. Biol. Chem. 193, 265-275, (1951)) and DNA assay by the Hoechst method (West, D. C., Sattar, A. and Kumar, S., Anal. Biochem. 147, 289-295, (1985)).

[3] = system: DU145 cells; test: Growth of DU145 cells (protein and DNA assay, 72 h); type: cell-based, human
Description: as §1
The procedure used for the tests on DU145 is as follows: • 10^5 cells are incubated in the various wells of a microplate in 1 ml of culture medium.
as §4
After 72 hours, the cells are removed at different times. The DU145 cells are washed twice with PBS and recovered directly with 0.1M sodium chloride.
as §6, with “DU145” for “DU145 cells or the normal”
as §2

[4] = system: DU145 cells; test: Combination of two compounds of the invention on the growth of DU145 cells; type: cell-based, human; conditions: Homo sapiens, DU-145
Description: as §3, §4, §5, §6

[5] = system: R7 cells; test: Growth of R7 cells which overexpress the MDR gene; type: cell-based; conditions: increasing concentrations, 72 h, FIGS. 7 and 8
Description: (§7) 10^5 cells were incubated in the various wells of a microplate in 1 ml of culture medium. These are R7 cells, on the one hand, and K562 cells, on the other hand.
(§8) After incubating for 4 hours, the test compound (compound of Example 1 according to the invention, on the one hand, and daunorubicin, on the other hand) was added to the wells containing the cells.
(§9) After 72 hours, the cells were collected at different times.
(§10) The growth of the cells was measured by counting the viable cells in the presence of 0.1% Trypan blue.
(§11) FIGS. 7 and 8 respectively represent the percentage inhibition (I %) by daunorubicin and the compound of Example 1 on the growth of the R7 and K562 cells, obtained at increasing concentrations C. The results obtained with the K562 cells are symbolized by ♦ and those obtained with the R7 cells are symbolized by ▴.

[6] = system: K562 cells; test: Growth of K562 cells (control, no MDR overexpression); type: cell-based, human; conditions: increasing concentrations, 72 h, FIGS. 7 and 8
Description: as §7, §8, §9, §10, §11

[7] = system: DU145 cells; test: Combination of Example 1 and Metmetlico on the growth of DU145 cells; type: cell-based, human
Description: The cells used correspond to metastatic cells of human prostate cancer DU145. 10^5 DU145 cells are incubated in the various wells of a microplate in 1 ml of culture medium. The test compounds are added 4 hours after placing the cells in the wells. After 72 hours, the cells are removed at different times. The cells are washed twice with PBS and recovered directly with 0.1M sodium chloride. The effect on the growth of DU145 cells is measured by protein assay according to the Lowry method (Lowry, O. H., Rosenbrough, […]. and Randall, J. Biol. Chem. 193, 265-275, (1951)) and DNA assay by the Hoechst method (West, […]. and Kumar, S., Anal. Biochem. 147, 289-295, (1985)). The test compounds are the compound of Example 1, metmetlico and a mixture thereof.

[8] = Homo sapiens, DU-145, 50% inhibition of cell growth

Structure (SMILES): COc1cccc2c1C(=O)c1c(O)c3c(c(O)c1C2=O)C[C@@](O)(C(C)=O)C[C@@H]3O[C@H]1C[C@H](N)[C@H](O)[C@H](C)O1 [daunorubicin, reference compound]
- Inhibition of the growth of the R7 cells [5]: no inhibitory effect on the growth of the R7 cells
- Inhibition of the growth of the K562 cells [6]: inhibits the growth of the K562 cells

Structure (SMILES): CSCCC(=O)SCCC(CCCCC(=O)OCC[N+](C)(C)C)SC(=O)CCSC.[I-] (stereo not drawn) [Metmetlico, 2′-(trimethylammonium)ethyl 6S,8S-bis(3-methyl-thiopropanoyl)octanoate iodide, reference compound]
- % Inhibition of growth of the DU145 cells ([7]; 25 μM): 0%
- % Inhibition of growth of the DU145 cells ([7]; 50 μM): 0%

Second part, led by results:

- IC50 ([1]; Mus musculus): 12 µM
- IC50 [3, 8]: 8.8 µM
Structure (SMILES): CSC(=O)C#CC(C)(C)N1CCOCC1 [Example 5, S-methyl 4-methyl-4-morpholin-4-yl-2-pentynethioate]
- inhibition at 1 µM ([2]; 1 μM): 0%
- inhibition at 2 µM ([2]; 2 μM): 1.3%
- inhibition at 1 µM ([4]; 1 μM): 14.3%
- inhibition at 2 µM ([4]; 2 μM): 25.2%

- IC50 [1]: 2.7 µM
- IC50 ([3]; 50% inhibition of cell growth): 7.2 µM
Structure (SMILES): CSC(=O)C#CC(C)(C)N1CCCC1 [Example 4, S-methyl 4-methyl-4-pyrrodin-1-yl-2-pentynethioate]

- IC50 ([1]; Mus musculus): 2.7 µM
- IC50 [3, 8]: 8 µM
Structure (SMILES): CCCN(CCC)C(C)(C)C#CC(=O)SC [Example 3, S-methyl 4-di-n-propylamino-4-methyl-2-pentynethioate]
